Test results from patent US20260256741A1, “ANTICANCER MALEIMIDE DERIVATIVES FOR USE WITH IMMUNE CHECKPOINT BLOCKADE” (BROWN UNIVERSITY, priority 2022, published 2026).

What was measured:
[1] = test system: CD45+ immune cell segments of tumor biopsies; assay: GeoMx Digital Spatial Profiling of patient tumor biopsies; type: in vivo, human; settings: post- vs pre-treatment
Description: An Agilent technologies hybridization oven was used for baking tissue onto slides (Agilent, Santa Clara, CA, USA). A NanoString GeoMx® Digital Spatial Profiler (DSP) instrument (NanoString, Seattle, WA, USA) was used to scan slides, identify regions of interest (ROIs), and collect photocleavable barcodes according to manufacturer instructions. A custom panel was designed to include the following proteins: Ms IgG1, Ms IgG2a, Rb IgG, GAPDH, Histone H3, S6, Beta-2-microglobulin, CD31, CD45, Ki-67, ARG1, CD11b, CD11c, CD14, CD163, CD39, CD40, CD68, HLA-DR, GZMB, CD20, CD3, CD34, CD4, CD56, CD66b, CD8, Foxp3, Fibronectin, 4-1BB, B7-H3, CTLA4, GITR, IDO1, LAG3, OX40L, STING, Tim-3, VISTA, Bcl-2, ER-α, EpCAM, Her2, MART1, NY-ESO-1, PR, PTEN, PanCk, SMA, CD127, CD25, CD27, CD44, CD45RO, CD80, ICOS, PD-1, PD-L1, and PD-L2. An Eppendorf MasterCycler Gradient Thermal Cycler was used to generate the Illumina sequencing libraries from the photocleaved tags. (Eppendorf, Hamburg, Germany). An Agilent Fragment Analyzer (RRID: SCR_019417) was used for library size distribution analysis with a high-sensitivity NGS Fragment Kit (Cat #DNF-474-0500, Agilent, Santa Clara, CA, USA). qPCR for quantification was run using an Illumina-compatible KAPA Library Quantification Kits (ROX Low) (cat #KK4873) on an Applied Biosystems ViiA 7 Real-Time qPCR/PCR Thermal Cycler System (Applied Biosystems, San Francisco, CA, USA) and was analyzed using QuantStudio software (RRID: SCR_018712). Sequencing was performed using a NextSeq 500/550 High Output Kit v2.5 (75 Cycles) kit (cat #20024906) on an Illumina Sequencing NextSeq 550 System ([RRID: SCR_016381], Illumina, San Diego, CA, USA). The initial annotated dataset went through quality control (QC) to check if housekeeper genes and background (isotype) control molecules were themselves correlated with the predictors of interest. Every ROT was tested for raw sequencing reads (segments with <1000 raw reads were removed), % sequencing saturation (defined as [1-deduplicated reads/aligned reads]%, segments below ~50% were not analyzed), and nuclei count per segment (>100 nuclei per segment is generally recommended). Both immunoglobulins (IgGs) and housekeeper genes were highly correlated with one another. Signal to noise (SNR) ratio was calculated using background probes and all probes were detected above the background in at least one ROI. Finally, data were normalized based on background IgG expression and all normalization factors were well distributed. Data analysis and visualization were generated using R ([RRID: SCR_001905], R Development Core Team, 2020). Archival tumor specimens and peripheral blood samples were collected from patients enrolled in the Phase I study of Elraglusib (9-ING-41), a small molecule selective glycogen synthase kinase-3 beta (GSK-3b) inhibitor, as monotherapy or combined with cytotoxic regimens in patients with relapsed or refractory hematologic malignancies or solid tumors (Clinicaltrials.gov NCT03678883) who received treatment at the Lifespan Cancer Institute (Providence, RI, USA). The study was conducted in accordance with the Declaration of Helsinki and the International Conference on Harmonization Good Clinical Practice guidelines. The study protocol was approved by the Institutional Review Board (IRB) of Rhode Island Hospital under protocol number 1324888-120. The patients also participated in a Lifespan Cancer Institute research protocol designed to investigate molecular and genetic features of tumors and mechanisms of resistance (Rhode Island Hospital IRB protocol number 449060-38). All patients provided written informed consent.

TALL-104 cells = assay: Western blot analysis of TALL-104 immune cells; type: cell-based, human
Protocol: Cells were plated in a 6-well plate and incubated overnight before the spent media was replaced with drugged media. Drug treatment lasted for indicated durations. Protein was extracted using radioimmunoprecipitation (RIPA) assay buffer (Cat #R0278, Sigma-Aldrich, St. Louis, MO) containing cOmplete™, Mini, EDTA-free Protease Inhibitor Cocktail (Cat #4693159001, Roche, Basel, Switzerland) from sub-confluent cells. Denaturing sample buffer was added, samples were boiled at 95 degrees for 10 minutes, and an equal amount of protein lysate was electrophoresed through NuPAGE™ 4 to 12%, Bis-Tris, 1.5 mm, Mini Protein Gels (Invitrogen, Waltham, MA) then transferred to PVDF membranes. The PVDF membrane was blocked with 5% non-fat milk (Sigma-Aldrich, St. Louis, MO) in 1×TTBS. Primary antibodies were incubated with the transferred PVDF membrane in blocking buffer at 4° C. overnight. Secondary antibodies used included Goat anti-Rabbit IgG (H+L) Secondary Antibody, HRP (Cat #31460, Invitrogen, Waltham, MA), and Goat anti-Mouse IgG (H+L) Secondary Antibody, HRP (Cat #31430, Invitrogen, Waltham, MA). Signal was detected using Pierce™ ECL Western Blotting Substrate (Cat #32106, Thermo Scientific, Waltham, MA, USA) and a Syngene Imaging System (RRID: SCR_015770).

[2] = tumor-infiltrating CD45+ segments, p=0.012
[3] = tumor-infiltrating CD45+ segments, p=1.6E-3
[4] = tumor-infiltrating CD45+ segments, p=3.1E-5
[5] = as treatment duration increased (0-72 hours)
[6] = immune cell lysates, cell line not given, 0-72 hours

SMILES: Cn1cc(C2=C(c3coc4ccc(F)cc34)C(=O)NC2=O)c2cc3c(cc21)OCO3 [elraglusib, 3-(5-fluorobenzofuran-3-yl)-4-(5-methyl-5H-[1,3]dioxolo[4,5-f]indol-7-yl)-1H-pyrrole-2,5-dione]
- CD40 protein expression ([1]; CD45+ regions, all samples, p=0.020): decreased protein expression
- CD11c protein expression ([1]; CD45+ regions, all samples, p=0.022): decreased protein expression
- PD-L2 protein expression ([1]; CD45+ regions, all samples, p=2.0E-9): decreased protein expression
- VISTA protein expression ([1]; CD45+ regions, all samples, p=2.0E-24): decreased protein expression
- PD-L1 protein expression ([1]; CD45+ regions, all samples, p=3.2E-13): decreased protein expression
- CD68 protein expression ([1]; CD45+ regions, all samples, p=3.8E-4): decreased protein expression
- IDO1 protein expression ([1]; CD45+ regions, all samples, p=4.8E-6): decreased protein expression
- LAG3 protein expression ([1]; CD45+ regions, all samples, p=5.1E-4): decreased protein expression
- CD80 protein expression ([1]; CD45+ regions, all samples, p=5.4E-6): decreased protein expression
- PD-1 protein expression ([1]; CD45+ regions, all samples, p=5.6E-9): decreased protein expression
- CD11b protein expression ([1]; CD45+ regions, all samples, p=6.7E-3): decreased protein expression
- CD66b protein expression ([1]; CD45+ regions, all samples, p=7.5E-15): decreased protein expression
- B7-H3 protein expression [1, 2]: higher protein expression
- CD127 protein expression [1, 2]: higher protein expression
- GITR protein expression ([1]; tumor-infiltrating CD45+ segments, p=0.021): lower protein expression
- CD45RO protein expression ([1]; tumor-infiltrating CD45+ segments, p=1.1E-4): lower protein expression
- PD-L1 protein expression ([1]; tumor-infiltrating CD45+ segments, p=1.1E-6): lower protein expression
- CD66b protein expression ([1]; tumor-infiltrating CD45+ segments, p=1.4E-13): lower protein expression
- PTEN protein expression ([1]; tumor-infiltrating CD45+ segments, p=1.5E-11): lower protein expression
- OX40L protein expression [1, 3]: higher protein expression
- PD-1 protein expression [1, 3]: lower protein expression
- VISTA protein expression ([1]; tumor-infiltrating CD45+ segments, p=1.6E-14): lower protein expression
- CD80 protein expression ([1]; tumor-infiltrating CD45+ segments, p=2.4E-3): lower protein expression
- B2M protein expression ([1]; tumor-infiltrating CD45+ segments, p=2.5E-6): lower protein expression
- Ki-67 protein expression ([1]; tumor-infiltrating CD45+ segments, p=2.7E-4): lower protein expression
- CTLA4 protein expression [1, 4]: higher protein expression
- HLA-DR protein expression [1, 4]: lower protein expression
- CD44 protein expression ([1]; tumor-infiltrating CD45+ segments, p=3.1E-7): lower protein expression
- CD34 protein expression ([1]; tumor-infiltrating CD45+ segments, p=3.3E-9): lower protein expression
- CD68 protein expression ([1]; tumor-infiltrating CD45+ segments, p=5.8E-4): lower protein expression
- IDO1 protein expression ([1]; tumor-infiltrating CD45+ segments, p=6.6E-4): lower protein expression
- CD56 protein expression ([1]; tumor-infiltrating CD45+ segments, p=6.9E-3): lower protein expression
- PD-L2 protein expression ([1]; tumor-infiltrating CD45+ segments, p=7.6E-4): lower protein expression
- ARG1 protein expression ([1]; tumor-infiltrating CD45+ segments, p=7.6E-5): lower protein expression
- CD11c protein expression ([1]; tumor-infiltrating CD45+ segments, p=9.5E-3): lower protein expression
- NF-κB protein (TALL-104 cells; [5]): did not notice significant changes
- survival protein Bcl-2 (TALL-104 cells; [5]): did not notice significant changes
- NF-κB-inducing kinase (NIK) (TALL-104 cells; [6]): increases
- survival protein Survivin (TALL-104 cells; [6]): increases
